In data set [1] the test system is pre-DC2. Briefly: Cytokine production by pre-DC2, ELISA of supernatants. To be noted: 24 h. Format: cell-based, human. The procedure: (§1) Underlines indicate palindromic sequences. ODNs 1668, 2117, and 2006 are phosphorothioate forms, and ACC-30, AAC-30, and GAC-30 are phosphodiester forms. The phosphorothioate ODNs were added at 0 h at 0.1 μM or 1 μM, and the phosphodiester ODNs were added at 0, 4, and 16 h, 5 μM at each time point, to compensate for their degradation by deoxyribonuclease activity in media.
(§2) Monocytes, CD11c^+ DC, and pre-DC2 were isolated from human peripheral blood. See Grouard, et al. (1997) J. Exp'l Med. 185:1101-1111; and Kadowaki, et al. (2000) J. Exp'l Med. 192:219-226. The cells were cultured for 24 h in RPMI1640 containing 10% FCS at 2×10^4/200 μl in round-bottom 96-well culture plates in the presence of ODNs or 50 μg/ml poly I:C (Sigma). Adult dermal fibroblasts (Clonetics) were maintained as recommended by the company, and were stimulated with 50 μg/ml poly I:C for 24 h at 7.5×10^4/ml in 12-well culture plates.
(§3) An IFN-α ELISA kit, an IL-12 ELISA kit (Biosource International), and an IFN-β ELISA kit (FUJIREBIO) were used to analyze cytokine production.
(§4) It was examined whether CpG ODNs and poly I:C induce pre-DC2 to produce IFN-α. Cells were stimulated with various CpG ODNs (2117, 2006, 1668: 1 μM, ACC-30, AAC-30, GAC-30: 5 μM) for 24 h, and the concentrations of IFN-α in the supernatants were measured by ELISA. Typically, cytokine is accumulated from cultures of about 2×10^4 cells in 200 μl cultured for 24 h. […] In contrast, AAC-30 and GAC-30 induced pre-DC2 to produce large amounts of IFN-α (AAC-30 508-1806 pg/ml, GAC-30 931-1362 pg/ml). ACC-30 induced pre-DC2 to produce much smaller amounts of IFN-α (18-161 pg/ml). None of the CpG ODNs used here induced CD11c^+ DC and monocytes to produce detectable levels of IFN-α.
(In an ELISA, binding on a coated surface is turned into a signal by an enzyme label.)

The subject of data set [2] is pre-DC2. As to the kind of experiment: Viability of pre-DC2 by propidium iodide staining and flow cytometry. Format: cell-based, human. To be noted: 24 h culture. The procedure:
as §1, §2
IV. Analysis of viability of pre-DC2 stimulated with ODNs or poly I:C Pre-DC2 cultured for 24 h without stimulation or with ODNs or poly I:C were stained with propidium iodide, and were analyzed with a FACScan® flow cytometer (Becton Dickinson). After cell debris was excluded by an appropriate forward scatter threshold, the percentages of propidium iodide-negative cells were calculated.
Pre-DC2 were cultured for 24 h without stimulation, with the indicated ODNs, or with 50 μg/ml poly I:C. ACC-30, AAC-30, and GAC-30 were added at 5 μM. After cell debris was excluded by an appropriate forward scatter threshold, the percentages of propidium iodide-negative cells were measured by flow cytometry
A general note: Flow cytometry measures light scatter and fluorescence of single cells or particles in a stream.

The subject of data set [3] is pre-DC2. Briefly: Flow cytometric analysis of CD80 and CD86 expression on pre-DC2. Type of data set: cell-based, human. The settings on record: for expression of CD80 and CD86 on pre-DC2: 5 μM phosphodiester ODN, 24 h. The procedure: as §1, §2
(§5) Freshly isolated pre-DC2 and pre-DC2 stimulated with ODNs for 24 h were stained with PE-conjugated anti-CD80 (L307.4, Becton Dickinson), PE-conjugated anti-CD86 (2331, Pharmingen), or an isotype control antibody. CD11c^+ DC cultured for 24 h without stimulation or with poly I:C were stained with FITC-conjugated anti-CD80 (L307.4), FITC-conjugated anti-CD86 (2331), or an isotype control antibody. The cells were analyzed with a FACScan® flow cytometer. Dead cells were excluded by staining with propidium iodide.
Freshly isolated pre-DC2 and pre-DC2 cultured with the CpG ODNs for 24 h were stained with PE-conjugated anti-CD80 or anti-CD86 mAbs. The upregulation of CD80 and CD86 expression on pre-DC2 is a hallmark of their differentiation into DC. Grouard, et al. (1997) J. Exp'l Med. 185:1101-1111; and Kadowaki, et al. (2000) J. Exp'l Med. 192:219-226.

Data set [4] has as its system CD11c^+ DC. Briefly: Cytokine production by CD11c+ DC, ELISA of supernatants. Type of data set: cell-based, human. The settings on record: 24 h. The procedure:
as §1, §2, §3, §4

For the next data set, the system named is monocytes. Briefly: Cytokine production by monocytes, ELISA of supernatants. Format: cell-based, human. To be noted: 24 h; for IFN-α production by monocytes: CpG ODNs (2117, 2006, 1668: 1 μM; ACC-30, AAC-30, GAC-30: 5 μM). The procedure: as §1, §2, §3, §4
A further data set concerns Adult dermal fibroblasts. As to the kind of experiment: IFN-β production by poly I:C stimulated fibroblasts, ELISA. The settings on record: 50 μg/ml poly I:C, 24 h, 7.5×10^4/ml. Format: cell-based. The procedure:
as §2, §3

In data set [5] the test system is CD11c^+ DC. Briefly: Flow cytometric analysis of CD80 and CD86 expression on CD11c+ DC. Type of data set: cell-based, human. To be noted: 50 μg/ml poly I:C, 24 h culture. The procedure: as §2, §5
CD11c^+ DC cultured for 24 h without stimulation or with 50 μg/ml poly I:C were stained with FITC-conjugated anti-CD80 or anti-CD86 mAbs. […] Cella, et al. (1999) J. Exp'l Med. 189:821-829; and Verdijk, et al. (1999) J. Immunol. 163:57-61. […]

Where [6] appears, read: 5 μM ODN, about 2×10^4 cells in 200 μl.
The mark [7] stands for this setting: 5 μM phosphodiester ODN added at 0, 4 and 16 h.
The mark [8] stands for this setting: CpG ODNs (2117, 2006, 1668: 1 μM; ACC-30, AAC-30, GAC-30: 5 μM).

Consider “1668: CpG oligodeoxynucleotide TCCATGACGTTCCTGATGCT (DNA, all phosphorothioate, methylation of C not given here) [compound 1668]”, for which the “IFN-α production by pre-DC2” value with pre-DC2 [1] (1 μM ODN, about 2×10^4 cells in 200 μl) is on record as “did not induce pre-DC2 to produce detectable levels of IFN-α”. For the same substance, the “survival of pre-DC2 (propidium iodide-negative cells)” value (“survival of pre-DC2” for short) with pre-DC2 [2] (1 μM phosphorothioate ODN) was “did not maintain the survival of pre-DC2”.
As for “AAC-30: palindromic CpG oligodeoxynucleotide ACCGATAACGTTGCCGGTGACGGCACCACG (DNA, all phosphodiester, methylation of C not given here)”, the “expression of CD80 and CD86 on pre-DC2” value in the data set on pre-DC2 [3] is “upregulated CD80 and CD86, albeit to a lesser extent than 2006 and 2117”. Besides, in the data set with pre-DC2 [1] (setting [6]), the “IFN-α production by pre-DC2” value lay within 508 to 1806 pg/mL. Also, in the data set on pre-DC2 [2] (setting [7]), the “survival of pre-DC2” value is “maintained the survival of pre-DC2”. Moreover, the “IFN-α production by CD11c+ DC” value in the data set with CD11c^+ DC [4] (setting [8]) is on record as “did not produce detectable levels of IFN-α”. In addition, the “IFN-α production by monocytes” value in the data set on monocytes is “did not produce detectable levels of IFN-α”.
For “ACC-30: oligodeoxynucleotide ACCGATACCGGTGCCGGTGACGGCACCACG (DNA, all phosphodiester, methylation of C not given here)”, in the data set with pre-DC2 [1] (setting [6]), the “IFN-α production by pre-DC2” value was 18 to 161 pg/mL. Also, the “survival of pre-DC2” value with pre-DC2 [2] (setting [7]) is on record as “less efficient”.
As for “GAC-30: palindromic CpG oligodeoxynucleotide ACCGATGACGTCGCCGGTGACGGCACCACG (DNA, all phosphodiester, methylation of C not given here)”, in the data set with pre-DC2 [3], the “expression of CD80 and CD86 on pre-DC2” value was “upregulated CD80 and CD86, albeit to a lesser extent than 2006 and 2117”. In the data set on pre-DC2 [1] (setting [6]), the “IFN-α production by pre-DC2” value fell in the range of 931 to 1362 pg/mL. Further, the “survival of pre-DC2” value in the data set with pre-DC2 [2] (setting [7]) was “maintained the survival of pre-DC2”. For the same substance, the “IFN-α production by CD11c+ DC” value with CD11c^+ DC [4] (setting [8]) was “did not produce detectable levels of IFN-α”. Further, the “IFN-α production by monocytes” value with monocytes is “did not produce detectable levels of IFN-α”.
As for “polyinosinic polycytidylic acid [poly I:C]”, the “IFN-β production by fibroblasts” value in the data set with Adult dermal fibroblasts was 28.6 to 48.5 pg/mL. For the same substance, the “differentiation of pre-DC2 into DC” value in the data set with pre-DC2 [3] (poly I:C) is “does not stimulate pre-DC2 to survive and to differentiate into DC”. Also, in the data set on pre-DC2 [1] (50 μg/ml poly I:C), the “IFN-α production by pre-DC2” value is on record as “did not induce pre-DC2 to produce a detectable level of IFN-α”. Further, the “expression of CD80 and CD86 on CD11c+ DC” value with CD11c^+ DC [5] was “strongly upregulated”. Also, in the data set with pre-DC2 [2] (50 μg/ml poly I:C), the “survival of pre-DC2” value is given as “did not maintain the survival of pre-DC2”. Besides, in the data set on CD11c^+ DC [4] (50 μg/ml poly I:C), the “IFN-α production by CD11c+ DC” value was in the range of 24.1 to 97.9 pg/mL, the “IFN-β production by CD11c+ DC” value was 33.6 to 166.5 pg/mL and the “IL-12 production by CD11c+ DC” value was in the range of 17.7 to 137.7 pg/mL. In addition, the “IFN-β production by monocytes” value with monocytes (50 μg/ml poly I:C) was “but not pre-DC2 or monocytes”.

The record behind these values is US20030003579A1, “Dendritic cells; methods” (priority 2000, published 2003).
